The source of these data is article PMC6290556, “1,4-Disubstituted Thiosemicarbazide Derivatives are Potent Inhibitors of Toxoplasma gondii Proliferation” (Molecules, 2014).

Data set [1] has as its system T. gondii RH strain tachyzoites. Briefly: [3H]uracil incorporation assay of T. gondii proliferation in L929 host cells. Type of data set: cell-based, Toxoplasma gondii. The settings on record: assay A [3H]uracil incorporation; for intensity of T. gondii proliferation: vs untreated blank. Here is the method: In the next step of our studies, the prepared 1,4-disubstituted thiosemicarbazides (series 1–3) were used to assess the inhibition of T. gondii growth in vitro. For this purpose, intracellular parasites (tachyzoites) of RH strain were incubated with different concentrations of the thiosemicarbazides ranging from 1 to 100 µg/mL. Inhibition of the parasite growth was monitored by measuring the specific incorporation of [^3H]uracil in the parasite’s nucleic acids.
The tachyzoites of T. gondii strain RH – intraspecies type I (ATCC_ Number 50174™) were maintained through passages on female C57BL/6 (H-2^b) and BALB/c (H-2^d) mice with genetically determined high and low susceptibility (respectively) to T. gondii infection (10–12 weeks old). Tachyzoites washed out from the peritoneum cavity were once expanded in vitro on L929 cells.
L929, (2 × 10^4 cells/100 µL/well) were grown in complete medium (IMDM) on 96-well plates. After 24 h incubation, a medium was removed and then T. gondii RH tachyzoites, suspended in culture medium supplemented with 1.0, 5.0, 10.0, 50.0 and 100.0 μg/mL 1,4-disubstituted thiosemicarbazides (1g, 2b, 2m, 3d, 3l) and as a control-sulfadiazine, were added (2 × 10^5 tachyzoites/200 µL/well) to the cell monolayers. After subsequent 48 h incubation 1 µCi/well of [^3H] uracil (Moravek Biochemicals Inc., Brea, CA, USA) was applied to each microculture for further 18–20 h. The amount of the isotope incorporated into the parasite nucleic acid pool, corresponding to the parasite growth, was measured by liquid scintillation counting with 1450 Microbeta Plus Liquid Scintillation Counter (Wallac Oy, Turku, Finland).

The test system of another data set is T. gondii RH strain. Briefly: quantitative real-time PCR (B1 gene) of T. gondii in infected L929 cells. Type of data set: cell-based, Toxoplasma gondii. The settings on record: assay B qRT-PCR, L929 host cells. Here is the method: T. gondii genomic DNA was isolated from the tachyzoites of RH strain with Wizard® SV Genomic DNA Purification System (Promega, Madison, WI, USA) according to the manufacturer’s instruction. The DNA concentration and purity were measured using a NanoPhotometer (Implen, München, Germany), while the integrity of the extracted DNA was tested using an ethidium bromide-stained agarose gel. DNA was used for the detection and quantitationof T. gondii in analyzed samples and it was stored at −20 °C until use.
A quantitative real-time PCR (qRT-PCR) assay, targeting B1 gene was performed to detect and to quantitate T. gondii in analyzed samples (1g, 2b, 2m, 3d, 3l and sulphadiazine) according to the modified protocol of Wahab et al.. […] Amplification was carried out on a 7900HT real-time PCR system (Applied Biosystems, Carlsbad, CA, USA). The reaction mixtures (25 µL) consisted of 1x TaqMan PCR master mix supplemented with ROX (Applied Biosystems), 300 nM probe, 900 nM of each primer and 2 µL of template DNA. For quantification a standard curve was constructed using 10-fold serial dilutions of DNA extracted from a known number of T. gondii. The cycling parameters were: 50 °C for 2 min, initial activation at 95 °C for 10 min, and 45 two-step cycles of 95 °C for 15 s and 60 °C for 1 min. All samples were analyzed in triplicate.
A general note: In qPCR the cycle at which signal appears reflects the starting amount.

Data set [2] deals with Gram-positive and Gram-negative bacterial strains. In words: antibacterial assay (disc diffusion / agar dilution). The settings on record: even at high concentrations. Type of data set: cell-based. An excerpt:
The following microorganisms were used in this study: Staphylococcus aureus (ATCC 25923, ATCC 6538, ATCC 29213, NCTC 4163), Staphylococcus epidermidis ATCC 12228, Bacillus subtilis ATCC 6633, Bacillus cereus ATCC 11778, Micrococcus luteus (ATCC 9341, ATCC 10240), Escherichia coli (ATCC 10538, ATCC 25922, NCTC 8196), […] NCTC 4635, Pseudomonas aeruginosa (ATCC 15442, ATCC 27853, NCTC 6749), and Bordetella bronchiseptica ATCC 4617. Initially, antibacterial activity of thiosemicarbazide derivatives was screened on the basis of growth inhibition zone (giz) utilizing the disc diffusion method, according to the Clinical and Laboratory Standards Institute guidelines. For compounds showing the inhibitory effect on the growth of tested bacteria, monitored as an appearance of giz, the minimal inhibitory concentrations (MICs) were determined using agar dilution method, according to the Clinical and Laboratory Standards Institute guidelines. The minimal inhibitory concentrations (MICs) were defined as the lowest concentration of the compound preventing growth of the tested microorganism. In both methods, recommended Mueller-Hinton II agar medium (Becton Dickinson, Heidelberg, Germany) was used. Solutions containing the tested agents were prepared in methanol or DMSO. Ciprofloxacin was used as control antimicrobial agent.

The test system of the next data set is L929 cells. Briefly: MTT cell viability assay (ISO 10993-5). The settings on record: for viability of L929 cells: 24 h, ± SD; for CC30 (concentration required for 30% proliferation inhibition in vitro): L929 cells. Type of data set: cell-based, mouse. As for the experimental part: (§1) Cell line L929 (ATTC® Catalog No. […] The MTT assay was used according to international standards: ISO 10993-5:2009(E), Biological evaluation of medical devices, Part 5: Tests for in vitro cytotoxicity. […] Then, 1 mg/mL MTT (50 μL/well) was added to each well and incubated at 37 °C, 10% CO2 for 2 h. Mitochondrial dehydrogenases of viable cells reduced the yellowish water-soluble MTT to water-insoluble formazan crystals, which were solubilized with dimethyl sulfoxide (DMSO). The cell culture medium was aspirated cautiously, after which 150 μL DMSO was added to each well and mixed thoroughly. Optical density (OD) was read on the ELISA reader (Multiskan EX, Labsystems, Vienna, VA, USA) at 550 nm. […] All experiments were performed in triplicate.
(Tetrazolium dyes change colour on reduction, which living cells bring about.)

The nature of data set [3]: solubility under the anti-T. gondii protocol conditions. Type of data set: physicochemical. As to conditions: anti-T. gondii assay protocol, 1 to 100 µg/mL. Here is the method: In the next step of our studies, the prepared 1,4-disubstituted thiosemicarbazides (series 1–3) were used to assess the inhibition of T. gondii growth in vitro. For this purpose, intracellular parasites (tachyzoites) of RH strain were incubated with different concentrations of the thiosemicarbazides ranging from 1 to 100 µg/mL. Inhibition of the parasite growth was monitored by measuring the specific incorporation of [^3H]uracil in the parasite’s nucleic acids. Unfortunately, among the 15 compounds tested, derivatives 1a–1e, 1k, 1l, 2f, 2i, 2j, and 3h were insoluble under the protocol conditions and, consequently, they were eliminated from further experiments. The percentages of the parasite growth inhibition in L929 cells by the remaining compounds 1g, 2b, 3d, 3l and the control drug-sulfadiazine as well as IC50 values are shown in Table 1.
A preliminary assumption was thus put forward that the presence of both the five-membered hetaryl moiety at N1 position and the aryl moiety at N4 position of thiosemicarbazide core are the key functionalities required for potent anti-T. gondii activity of thiosemicarbazide-based compounds, which may be directly linked with the electronic structure of the molecule. In order to verify the preliminary hypothesis, 4-ethyl-1-(thiophen-2-yl)carbonylthiosemicarbazide (1m), 4-cyclohexyl-1-(thiophen-2-yl)carbonylthiosemicarbazide (1n), and 4-ethyl-1-(2-methylfuran-3-yl)carbonylthio-semicarbazide (2m) were synthesized and their bioactivity was tested. Unfortunately, derivatives 1m and 1n were insoluble under the protocol conditions and, consequently, they were eliminated from further experiments. […] The assumption of the existence of the relationship between the anti-T. gondii activity of the studied thiosemicarbazides and their molecular structure was also confirmed based on DFT calculations. Figure 3 illustrates the electrostatic potential mapped on the density surface using the Gaussview program. Neutral fragments are characterized by the green color of the surface. The negative charge is represented by red, while the positive charge is marked in blue. If compound 1g is excluded from the consideration, the biological activity correlates well with the dipole moment of the molecule. In this series it seems that the activity depends on the bimodal partial negative charge developed on the carbonyl oxygen and another moiety on the same side of the molecule (a sulfur atom in 2b and 3d). Its low value in 3l and lack in 2m may be responsible for the lower activity. […] It contains, however, two partial negative charge centers as the series discussed above and an additional such center on the fluorine atom. Comparison of the biological activity of 1g and 2m seems to indicate the crucial role of the second negative charge density on the top of the molecule on a moiety other than the carbonyl oxygen. Another observation that comes from the analysis of the presented structures is that the biological activity is pronounced when the methyl group of the five-membered ring is directed away from the carbonyl group.

Data set [4] has as its system T. gondii RH strain tachyzoites. Briefly: [3H]uracil incorporation assay of T. gondii proliferation in L929 host cells. As to conditions: Toxoplasma gondii, L929, read-out: IC50 (50% of T. gondii proliferation inhibition in vitro). Type of data set: cell-based.
Data set [5] in a line: MTT cell viability assay (ISO 10993-5). Type of data set: cell-based, mouse. As to conditions: mouse, L929 mouse fibroblast cells, 24 h, ± SD. Here is the method:
as §1

In brackets after ≈: the same amount, converted by molar mass.

By melting point is commonly meant the temperature of the solid-liquid transition. For orientation: viability means a per cent measure of how many cells are alive, often set against a control. The low end stands for a greater loss of cells, the high end for better survival.

Turning to “4-ethyl-1-(2-methylfuran-3-yl)carbonylthio-semicarbazide [Compound 2m]”, the “intensity of T. gondii proliferation” value in data set [1] (1 µg/mL) is on record as 98.00 ± 19.53%; in data set [1] (5 µg/mL), 75.74 ± 14.62%; in data set [1] (10 µg/mL) it was 60.61 ± 9.56 %; in data set [1] (50 µg/mL), 66.49 ± 11.38 %; in data set [1] (100 µg/mL), 57.59 ± 15.02 %; in the data set with T. gondii RH strain (50 µg/mL), 51.03 ± 7.02 %. Further, the “intensity of T. gondii proliferation” value in the data set on T. gondii RH strain (100 µg/mL) was 53.03 ± 9.87 %. Moreover, in data set [1], the “IC50 (50% of T. gondii proliferation inhibition in vitro)” value is 191.04 µg/mL. In data set [2], the “growth-inhibiting effect on bacterial strains” value is on record as “no growth-inhibiting effect”. Also, the “viability of L929 cells” value is listed as 104.05 ± 0.12% in the data set with L929 cells (1 µg/mL); 94.44 ± 2.62% in the data set on L929 cells (5 µg/mL); 94.05 ± 5.13% with L929 cells (10 µg/mL); 90.49 ± 2.99 % with L929 cells (50 µg/mL); 92.17 ± 2.31 % in the data set with L929 cells (100 µg/mL); 80.40 ± 2.74 % in the data set with L929 cells (500 µg/mL). In the data set with L929 cells, the “CC30 (concentration required for 30% proliferation inhibition in vitro)” value is recorded as greater than 500 µg/mL.
Turning to `O=C(NNC(=S)Nc1ccc(F)cc1F)c1cccs1` [Compound 1l], the “solubility under the protocol conditions” value in data set [3] is recorded as “insoluble”.
On the same count and under the same terms, next, `Cc1occc1C(=O)NNC(=S)Nc1ccc(I)cc1` [Compound 2j]: “insoluble”; `Cc1ccc(NC(=S)NNC(=O)c2ccoc2C)cc1` [Compound 2f]: “insoluble”.
Same read-out and setting: the entry for `CCN=C(S)NNC(=O)c1cccs1` [Compound 1m, 4-ethyl-1-(thiophen-2-yl)carbonylthiosemicarbazide] is “insoluble”.
On the same count and under the same terms, next, `O=C(NNC(=S)Nc1ccc([N+](=O)[O-])cc1)c1cccs1` [Compound 1k]: “insoluble”.
Consider `Cc1cccc(NC(=S)NNC(=O)c2cccs2)c1` [Compound 1e, 4-(3-Methylphenyl)-1-(thiophen-2-yl)carbonylthiosemicarbazide], for which the melting point was 188 to 190 °C.
Regarding `Cc1nnsc1C(=O)NNC(=S)Nc1ccc(Cl)cc1` [Compound 3h], the “solubility under the protocol conditions” value in data set [3] is “insoluble”.
On the same count and under the same terms, the entry for `O=C(NNC(=S)NC1CCCCC1)c1cccs1` [Compound 1n, 4-cyclohexyl-1-(thiophen-2-yl)carbonylthiosemicarbazide] is “insoluble”; for `Cc1occc1C(=O)NNC(=S)Nc1ccc(Br)cc1` [Compound 2i] it is “insoluble”.
Compound `Cc1ccccc1NC(=S)NNC(=O)c1cccs1` [Compound 1b, 4-(2-Methylphenyl)-1-(thiophen-2-yl)carbonylthiosemicarbazide] displayed a melting point of 155 to 157 °C.
For `Cc1ccccc1NC(=S)NNC(=O)c1ccoc1C` [Compound 2b], the “intensity of T. gondii proliferation” value in data set [1] (1 µg/mL) worked out at 98.24 ± 23.83%; in data set [1] (5 µg/mL) it was 107.95 ± 24.88%; in data set [1] (10 µg/mL), 112.25 ± 22.91 %; in data set [1] (50 µg/mL), 58.78 ± 11.49 %; in data set [1] (100 µg/mL) it was 8.10 ± 2.78 %; with T. gondii RH strain (50 µg/mL) it was 41.37 ± 9.98 %. The “intensity of T. gondii proliferation” value with T. gondii RH strain (100 µg/mL) came to 7.29 ± 1.56 %. Moreover, in data set [2], the “growth-inhibiting effect on bacterial strains” value is recorded as “no growth-inhibiting effect”. In data set [4], the IC50 was determined as 59 µg/mL (≈ 204 µM). For the same compound, the viability at 24 h, 1 µg/mL in data set [5] (1 µg/mL) amounted to 95.3 ± 9.52%. Further, the viability at 24 h, 5 µg/mL in data set [5] (5 µg/mL) is 94 ± 1.78%. In addition, the viability at 24 h, 10 µg/mL in data set [5] (10 µg/mL) is 91.9 ± 5.21%. Further, the viability at 24 h, 50 µg/mL in data set [5] (50 µg/mL) stood at 84.5 ± 1.43%. Moreover, in data set [5] (100 µg/mL), the viability at 24 h, 100 µg/mL is 78.2 ± 1.61%. In data set [5] (500 µg/mL), this compound gave a viability at 24 h, 500 µg/mL of 30.3 ± 0.86%. Also, in the data set with L929 cells, the “CC30 (concentration required for 30% proliferation inhibition in vitro)” value was found to be 187.51 µg/mL.
